# Experiments:
# lysozyme = lysozyme (Gallus gallus, UniProt P00698); test: Electrochemically promoted bioconjugation, MALDI-TOF MS; format: biochemical; details: NaBr, constant voltage 1.2 V, phosphate buffer 0.1 M pH 7.0
# Procedure: (§1) Mass spectra were generated with a MALDI-TOF mass spectrometer (rapifleX MALDI Tissuetyper from BRUKER) equipped with a solid-state smart beam and operated in a linear delayed extraction positive ion mode. The samples of conjugated peptide were concentrated using IMCStips (1 mL, IMCS company) and eluted with 70% acetonitrile/0.1% trifluoracetic acid (TFA) following the manufacturer protocol. Of note, the samples of conjugated proteins and viruses were denatured by incubating with guanidinium chloride (8 M) for 5 min at RT, followed by the removal of salts and elution using IMCStips. The resultant samples were spotted on a MALDI plate. These spots were analyzed by MALDI-TOF MS spectrometer with the matrix (Vsample: Vmatrix=1:1). Matrix of sinapic acid in 50% acetonitrile/0.1% TFA was used for protein measurements, and the matrix of a-Cyano-4-hydroxycinnamic acid in 50% acetonitrile/0.1% TFA was used for peptide measurements.
# (§2) To further access the compatibility of biomolecules and various CPol derivatives within the electrochemical bioconjugation process, a range of biomolecules including peptides, proteins, and TMV, along with different CPol derivatives, were subjected to the NaI or NaBr redox catalyst and a low cell potential of 0.8 V or 1.2 V individually (FIG. 4A). Electrochemical bioconjugation was employed for labeling angiotensin I, which is a peptide hormone responsible for vasoconstriction and evaluated in blood pressure. […] However, when modifying angiotensin I with NaI at a voltage of 0.8V, certain side reactions may occur. […] Thus, we conducted a preliminary reaction involving bivalirudin or lysozyme, compound 1, and the resulting Br-substituted ketone without the application of electrochemical conditions (FIGS. 11-12).
# (§3) Subsequently, the electrochemical bioconjugation approach was evaluated on lysozyme, a 14 kDa cationic protein. […] Additionally, the electrochemical bioconjugation on bovine serum albumin (BSA) was also evaluated. […] Besides, the conjugated biomolecule was conjugated with biotin-oxyamine under weak acidic conditions (m/z=18063 in FIG. 4F), which can be used in further cell labeling or protein proteomic analysis.
# [1] = target: bovine serum albumin (BSA) (Bos taurus, UniProt P02769); test: as above; format: biochemical; details: NaX (X=I or Br), 0.8 V or 1.2 V, phosphate buffer 0.1 M pH 7.0
# Procedure: as §1, §2, §3
# [2] = tested on: wild-type tobacco mosaic virus (wt-TMV); test: as above; format: biochemical
# Procedure: To purify wild-type plant virus tobacco mosaic virus (TMV), frozen TMV leaves were crushed and blended. Approximately 3 volumes of phosphate buffer were added to the crushed leaves with an addition of 0.2-0.3% 2-mercaptoethanol. The leaves were blended for 2 min at a low setting and then switched to the highest setting for an additional 3 min. The blended plant sap was filtered through two layers of cheesecloth and then flow through was centrifuged at 10500 rpm (Sorvall SLA 1500) at 4° C. for 20 min. The resulting supernatant was then pooled together and mixed with n-butanol/chloroform at a ratio of 2:1:1 (plant sap/n-butanol/chloroform). The homogenate was stirred for 30 min on ice and then centrifuged at 6000 rpm (SLA 4000) for 10 min at 4° C. The upper aqueous layer was transferred to a beaker, and the virus was precipitated by adding 0.2 M NaCl and 8% (wt/vol) PEG-8000. The mixture was stirred on ice for 60 min and centrifuged at 12000 rpm (Sorvall SLA1500) for 20 min. The white precipitant was then resuspended with 10 mM K phos buffer (pH 7.8). The solution was centrifuged at 9,500 rpm for 15 min at 4° C. to remove excess PEG. The supernatant was transferred to ultracentrifuge tubes (Beckman 50.2 Ti) and the virus was pelleted at 42,000 rpm at 4° C. for 3 h. The virus pellet was resuspended in 100 mM K phos buffer (pH 7.8) overnight at 4° C. UV absorbance was measured at 260 and 280 nm wavelengths to determine the concentration of the virus. […] The purified virus solutions were stored at 4° C.
# Mass spectra were generated with a MALDI-TOF mass spectrometer (rapifleX MALDI Tissuetyper from BRUKER) equipped with a solid-state smart beam and operated in a linear delayed extraction positive ion mode. […] These spots were analyzed by MALDI-TOF MS spectrometer with the matrix (Vsample: Vmatrix=1:1). […]
# Subsequently, the electrochemical bioconjugation approach was evaluated on lysozyme, a 14 kDa cationic protein. […] Additionally, the electrochemical bioconjugation on bovine serum albumin (BSA) was also evaluated. […]
# angiotensin I = target: T1, angiotensin I (Homo sapiens, UniProt P01019); test: Electrochemically promoted bioconjugation, MALDI-TOF MS and LC-MS; format: biochemical; details: NaBr, constant voltage 1.2 V
# T1 construct: labeling angiotensin I, which is a peptide hormone responsible for vasoconstriction
# Procedure: as §1, with “Matrix of sinapic acid in 50% acetonitrile/0.1% TFA was used for protein measurements, and the matrix of a-Cyano-4-hydroxycinnamic acid in 50% acetonitrile/0.1% TFA was used for peptide measurements.” left out
# (§4) To further access the compatibility of biomolecules and various CPol derivatives within the electrochemical bioconjugation process, a range of biomolecules including peptides, proteins, and TMV, along with different CPol derivatives, were subjected to the NaI or NaBr redox catalyst and a low cell potential of 0.8 V or 1.2 V individually (FIG. 4A). Electrochemical bioconjugation was employed for labeling angiotensin I, which is a peptide hormone responsible for vasoconstriction and evaluated in blood pressure. […]
# bivalirudin = test: as above; format: biochemical; details: NaBr, constant voltage 1.2 V, batch reaction
# Procedure: as §1, with “Matrix of sinapic acid in 50% acetonitrile/0.1% TFA was used for protein measurements, and the matrix of a-Cyano-4-hydroxycinnamic acid in 50% acetonitrile/0.1% TFA was used for peptide measurements.” left out
# as §4
# Vero cells [3] = test: CellTiter Blue (CTB) cell viability assay; format: cell-based; details: 24 h
# Procedure: The in vitro cytotoxicity test of CPol-choline analog or other chemicals on Vero cells was determined by CellTiter Blue (CTB) cell viability assay (Promega). Briefly, Vero cells were cultured in 96-well plates at a density of 12.5×10^3 cells per well one day prior experiment. On the following day, the media was replaced by fresh 10% FBS DMEM containing the choline analogs at the concentrations of 0.2, 0.4, 0.8, 1, and 5 mM and incubated for 24 h at 37° C. The cells without the compounds were used as controls. NaI and I2 were also tested at the concentrations varied from 0.01 to 10,000 μM. The experiments were performed in quadruplicate. After 24 h of incubation, the media in each well was replaced by prewarmed media containing 10% CTB reagent and incubated for 2 h at 37° C. and 5% CO2. The medium containing CTB without cells was used as a negative control. Fluorescence intensity was then measured at 560/590 nm (Ex/Em) using SpectraMax M2 Multi-Mode microplate reader (Molecular Devices) to indicate cell viability.
# Hela cells = test: Metabolic incorporation of CPol-choline, lipidomic experiments and LC-MS; format: cell-based; details: 5 mM, 24 h
# Procedure: (§5) Three million cells (Vero, HeLa, or NIH-3T3) were seeded into a 10-cm cell culture dish and allowed attachment for 24 h in a complete medium (DMEM with 10% FBS) in a CO2 incubator. When cells reached 70-80% confluency, choline analog (PCPol-Cho or ECPol-Cho) at a final concentration of 5 mM was added into cells and co-cultured for another 24 h. The adhered cells were washed with 5 mL ice-cold DPBS (Dulbecco's Phosphate-Buffered Saline, CORNING), and were scratched into ice-cold PBS (5 mL), pooled in a centrifuge tube, and centrifuged at 1,000 rpm for 5 min at room temperature. The supernatant was then aspirated off and the lipids were extracted from the resultant pellet using the modified Bligh Dyer method. Briefly, the cell pellet was treated with a mixture of chloroform and methanol (1 mL of a 1:2 v/v solution), vortexed for 1 min, followed by addition of chloroform (0.5 mL) and 1 M NaCl (0.5 mL), and again vortexed for 1 min. Phase separation was achieved by centrifuging the mixture at 3,220 g at 4° C. for 30 min. The lower lipid-enriched organic layer was separated and dried using nitrogen at room temperature. For all LC-MS/MS analyses, the dried lipids were dissolved in a mixture of chloroform and methanol (200 μL of a 1:1 v/v solution). For all control experiments, the procedure described above was followed without administration of any choline derivatives.
# (§6) Choline stands as the predominant head group in phospholipids which are the principal components of all cellular membranes. […] (FIG. 5A). The metabolic incorporation efficiency of CPol-choline was evaluated through lipidomic experiments (FIG. 15A) and LC-MS (FIG. 15B).
# NIH-3T3 cells = test: as above; format: cell-based; details: 5 mM, 24 h
# Procedure: as §5, §6
# Vero cells [4] = test: as above; format: cell-based; details: 5 mM, 24 h
# Procedure: as §5, §6
# Vero cells [5] = test: Electrochemically assisted cell labeling, FTSCA fluorescence; format: cell-based; details: CPol+NaI+Echem group: 5 mM CPol-choline, NaI 100 μM, 0.7 V, 50 μM FTSCA, plate reader
# Procedure: Vero cells were cultured in a 100-mm cell culture dish and allowed attachment overnight in a complete medium (DMEM with 10% FBS). When cells reached 60-70% confluency, CPol-choline analog at a final concentration of 5 mM was added into Vero cells and co-cultured for 24 h. The labeled Vero cells were harvested into 5 mL Dulbecco's Phosphate-Buffered Saline (DPBS 1×, CORNING). The cell numbers were counted using a hemocytometer. The cell concentration at 6×10^6 cells was used in the experiment. Subsequently, the Vero cell suspension was treated with NaI (100 μM) and low cell potential (0.7 V) under divided H-cell for 10 min. […] For the fluorescence imaging, the cells in a 24-well plate were fixed with 70% ethanol at −20° C. for 10 min, washed with DPBS three times, and then reacted with 50 μM FTSCA for 1 h at room temperature. After removing the unbound FTSCA, the cells were imaged by a fluorescence microscope (Olympus IX81, Shinjuku-ku, Tokyo, Japan). […] After washing with DPBS, the plate was read using a plate reader (Tecan Infinite M200 microplate reader) with an excitation wavelength of 491 nm and emission cutoff at 520 nm. […]
# The intensity of this fluorescence was quantified using a plate reader and visualized using fluorescence microscopy (FIG. 6A). […]
# Sequence of lysozyme (P00698 19-147): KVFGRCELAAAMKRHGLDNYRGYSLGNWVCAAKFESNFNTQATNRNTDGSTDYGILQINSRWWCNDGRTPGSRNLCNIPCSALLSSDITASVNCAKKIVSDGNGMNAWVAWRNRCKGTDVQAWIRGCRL
# Sequence of bovine serum albumin (BSA) (P02769 25-607): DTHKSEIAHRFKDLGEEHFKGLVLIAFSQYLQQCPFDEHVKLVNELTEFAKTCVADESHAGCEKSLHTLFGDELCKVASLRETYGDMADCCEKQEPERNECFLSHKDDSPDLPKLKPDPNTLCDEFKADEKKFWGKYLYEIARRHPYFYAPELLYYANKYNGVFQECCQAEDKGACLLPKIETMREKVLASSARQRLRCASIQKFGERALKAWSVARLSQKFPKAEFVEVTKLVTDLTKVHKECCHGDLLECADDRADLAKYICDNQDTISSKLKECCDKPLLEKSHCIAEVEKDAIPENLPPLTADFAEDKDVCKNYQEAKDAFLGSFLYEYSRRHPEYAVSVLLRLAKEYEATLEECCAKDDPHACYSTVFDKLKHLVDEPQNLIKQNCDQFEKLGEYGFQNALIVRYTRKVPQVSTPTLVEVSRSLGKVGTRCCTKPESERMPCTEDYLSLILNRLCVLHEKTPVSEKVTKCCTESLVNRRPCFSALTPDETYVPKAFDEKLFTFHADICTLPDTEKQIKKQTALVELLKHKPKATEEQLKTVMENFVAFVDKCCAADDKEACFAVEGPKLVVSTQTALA
smiles,measurement,setting,value
"OC1(c2ccc(C(F)(F)F)cc2)CC1 [Formula I-7, 1-(4-(trifluoromethyl)phenyl)cyclopropan-1-ol]",conjugation to lysozyme,lysozyme,efficiently conjugated
"OC1(c2ccccc2)CC1 [Formula I-1, Phenylcyclopropanol]",conjugation to BSA,[1],efficiently conjugated
same,conjugation to lysozyme,lysozyme,efficiently conjugated
same,conjugation to wt-TMV,"[2]; CPol derivative 10 eq., NaI, potential of 1.2 V",modified TMV peak ([M+132]^+) was found
same,conjugation to wt-TMV,[2]; identical electrochemical conditions (1.2 V) without NaI,no reaction occurred
same,labeling of angiotensin I,angiotensin I,successful labeling
same,modification of bivalirudin,bivalirudin,effectively modified
Br.C[N+](C)(CCO)CCCC1(O)CC1 [CPol-choline analog],cytotoxicity on Vero cells,Vero cells [3]; choline analog 0.2-5 mM,no cytotoxicity was observed
same,metabolic incorporation into cells,Hela cells,successfully incorporated
same,metabolic incorporation into cells,NIH-3T3 cells,successfully incorporated
same,metabolic incorporation into cells,Vero cells [4],successfully incorporated
same,intracellular fluorescence intensity after labeling with FTSCA,Vero cells [5],strongest fluorescent intensity
"[I-].[Na+] [NaI, sodium iodide]",cytotoxicity on Vero cells,"Vero cells [3]; NaI 0.01 to 10,000 μM",safely co-cultured
"CCCCCC1(O)CC1 [Formula I-4, Pentylcyclopropanol]",conjugation to BSA,[1],efficiently conjugated
same,conjugation to lysozyme,lysozyme,efficiently conjugated
same,conjugation to wt-TMV,"[2]; NaBr, constant voltage 1.2 V",successfully modified

# — patent US20250129116A1, “CYCLOPROPANOL AS A BIOORTHOGONAL WARHEAD FOR ELECTROCHEMICALLY CONTROLLED BIOCONJUGATION APPLICATIONS” (UNIVERSITY OF SOUTH CAROLINA, priority 2023, published 2025)
